The record followed here is US12053442B2, “Methods and compositions for neuroprotection” (The Feinstein Institutes for Medical Research, priority 2020, dated 2024).

Data set [1] in a line: ESI-MS evaluation of active cocktail components (stability, molecular interaction). The class given is physicochemical. Particulars: ESI-MS after ethyl acetate extraction (FIG. 6). The method, then:
Then the molecular mass of the extracted components was analyzed by electrospray ionization mass spectrometry (ESI-MS) (FIG. 6). […] Then the preparation was centrifuged at 10 000 g for 2 min at room temperature. The top layer (ethyl acetate) was then separated and transferred to a new vial. Another […] ethyl acetate was added into the bottom layer, and the extraction was repeated. The combined organic phase was dried with nitrogen gas. The residue was reconstituted in 500 μL methanol, vortexed for 10 s, and centrifuged at 13 000 g for 2 min. The final extract was transferred into a polypropylene vial. Then 30 μL of the final extract was injected and analyzed on a LTQ XL™ Linear Ion Trap Mass Spectrometer (Thermo Fisher Scientific, Waltham, MA), and the data was analyzed using Xcalibur 3.1 (Thermo Fisher Scientific, Waltham, MA).

Data set [2] is described as follows: Solubility in water during cocktail formulation. The data set is classed as physicochemical. Particulars: formulation NWH-1.
Another data set deals with control and CA rats. The experiment in a line: Cocktail development trials to assess survival benefit (Table 9). The class given is in vivo, rat. Particulars: reason for removal from the cocktail. The method, then: Our goal was to provide the most benefit with the least number of agents in a single concoction. […] This information can aid in selecting agents that can be appropriately and practically combined. […] Each drug, individually and in various combinations, was administered to normal rats (n=3) to determine any potential adverse effects, such as immediate death.

With `O=C1O[C@H]([C@@H](O)CO)C(O)=C1O` [vitamin C, ascorbic acid], the “Stability of drug in the final cocktail formulation by mass spectra” value (“Stability of drug” for short) in data set [1] is “intact and stable”. With `C/C(=C(\CCOC(=O)C(C)C)SS/C(CCOC(=O)C(C)C)=C(/C)N(C=O)Cc1cnc(C)nc1N)N(C=O)Cc1cnc(C)nc1N` [sulbutiamine, Sulbutiamine], the Solubility in water entry in data set [2] is reported as “insoluble in”. As for `CC1=NN(c2ccccc2)C(=O)C1` [edaravone, Edaravone], the “Stability of drug” value in data set [1] was “intact and stable”. Consider `Nc1ncnc2c1ncn2[C@@H]1O[C@H](COP(=O)([O-])OP(=O)(O)OP(=O)(O)O)[C@@H](O)[C@H]1O.[Cl-].[Mg+2]` [ATP-magnesium chloride, adenosine triphosphate-magnesium chloride], for which, in the data set with control and CA rats, the “Adverse effect seen in preliminary trials” value is reported as “hypotensive effect”. For `CC(=O)N[C@@H](CS)C(=O)O` [N-acetyl cysteine], the “Stability of drug” value in data set [1] was “intact and stable”. Consider `N=C(N)NC(=O)c1cnn(-c2cccc3ncccc23)c1C1CC1` [zoniporide, Zoniporide], for which the “Stability of drug” value in data set [1] was “intact and stable”. `COC1=C(OC)C(=O)C(C/C=C(\C)CC/C=C(\C)CC/C=C(\C)CC/C=C(\C)CC/C=C(\C)CC/C=C(\C)CC/C=C(\C)CC/C=C(\C)CC/C=C(\C)CCC=C(C)C)=C(C)C1=O` [CoQ10, Coenzyme Q10]: the Solubility in water entry in data set [2] was “insoluble in”. Regarding `CN(C)C(=N)N=C(N)N` [metformin, Metformin], the “Stability of drug” value in data set [1] was “intact and stable”.
